Data from patent US5739146A, “Substituted cyclo or bicycloalkylamides of (8β)-6-(substituted) ergolines” (Eli Lilly and Company, priority 1995, dated 1998).
Counter-ions that a name gives are not always drawn. Like-named read-outs stand apart in the source and are kept apart here.

What was measured:
[1] = target: T1, 5HT1B receptor (Rattus norvegicus, UniProt P28564); assay: Inhibition of 3H-serotonin binding to 5HT1B receptor; set-up: species or system male Sprague-Dawley rats
T1 construct: membranes isolated from bovine choroid plexus (for 5HT1.sbsb.c) or rat brain; from tissue
T1 sequence (P28564 whole entry): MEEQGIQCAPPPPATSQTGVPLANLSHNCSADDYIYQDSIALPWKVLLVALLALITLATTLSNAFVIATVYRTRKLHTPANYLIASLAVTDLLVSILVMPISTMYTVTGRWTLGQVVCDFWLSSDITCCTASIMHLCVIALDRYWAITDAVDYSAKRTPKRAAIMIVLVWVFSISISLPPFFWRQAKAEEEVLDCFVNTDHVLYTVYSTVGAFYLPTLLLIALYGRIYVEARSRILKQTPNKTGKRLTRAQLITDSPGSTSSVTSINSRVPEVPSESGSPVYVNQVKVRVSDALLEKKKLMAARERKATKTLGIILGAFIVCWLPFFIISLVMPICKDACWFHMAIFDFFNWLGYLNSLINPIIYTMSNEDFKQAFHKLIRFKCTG
Procedure: (§1) Radioactivity was measured with a liquid scintillation spectrometer.

[2] = target: 5HT2 receptor (Rattus norvegicus, UniProt P14842); assay: biochemical
Chain of 5HT2 receptor (P14842 whole entry): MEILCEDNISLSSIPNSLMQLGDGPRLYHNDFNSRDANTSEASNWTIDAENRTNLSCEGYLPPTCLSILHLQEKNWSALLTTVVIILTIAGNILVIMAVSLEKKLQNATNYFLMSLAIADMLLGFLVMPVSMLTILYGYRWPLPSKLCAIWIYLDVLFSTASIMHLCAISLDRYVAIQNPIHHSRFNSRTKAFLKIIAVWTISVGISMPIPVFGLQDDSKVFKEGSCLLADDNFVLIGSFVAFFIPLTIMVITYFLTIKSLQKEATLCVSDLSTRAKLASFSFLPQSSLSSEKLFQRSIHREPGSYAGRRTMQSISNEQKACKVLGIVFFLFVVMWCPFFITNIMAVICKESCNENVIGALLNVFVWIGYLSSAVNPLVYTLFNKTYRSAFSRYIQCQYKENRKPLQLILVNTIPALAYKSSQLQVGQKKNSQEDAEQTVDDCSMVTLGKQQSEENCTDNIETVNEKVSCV
Procedure: Binding was terminated by filtering samples under reduced pressure through glass fiber (GFB) filters. […] Radioactivity was measured with a liquid scintillation spectrometer.

[3] = target: 5HT1D receptor; assay: Inhibition of 3H-serotonin binding to 5HT1D receptor; set-up: species or system male Sprague-Dawley rats; settings: rat brain membranes, 25 °C, 30 min, pH 7.4, read-out: Inhibition of Radioligand Binding to 5HT Receptor 1D (IC50)
Procedure: as §1

[4] = target: T2, 5HT1A receptor (Rattus norvegicus, UniProt P19327); assay: Inhibition of 3H-8-hydroxy-2-(di-n-propylamino)tetralin binding to 5HT1A receptor; set-up: species or system male Sprague-Dawley rats
T2 construct: membranes isolated from bovine choroid plexus (for 5HT1.sbsb.c) or rat brain; from tissue
T2 sequence (P19327 1-422): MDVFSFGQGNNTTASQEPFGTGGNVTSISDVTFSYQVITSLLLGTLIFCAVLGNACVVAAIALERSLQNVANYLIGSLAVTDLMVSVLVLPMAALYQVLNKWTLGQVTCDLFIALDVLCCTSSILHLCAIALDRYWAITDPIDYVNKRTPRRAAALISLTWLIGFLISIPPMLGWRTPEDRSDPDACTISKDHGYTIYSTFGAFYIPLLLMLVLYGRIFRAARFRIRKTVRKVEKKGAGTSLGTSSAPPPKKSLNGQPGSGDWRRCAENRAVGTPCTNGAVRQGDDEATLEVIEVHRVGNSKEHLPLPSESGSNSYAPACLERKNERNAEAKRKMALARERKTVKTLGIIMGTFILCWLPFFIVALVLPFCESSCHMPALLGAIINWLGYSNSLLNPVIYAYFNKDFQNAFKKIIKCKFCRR
Procedure: as §1

[5] = target: T3, 5HT1C receptor (Bos taurus, UniProt A0AAA9SBU1); assay: Inhibition of 3H-mesulergine binding to 5HT1C receptor
T3 sequence (A0AAA9SBU1 33-457): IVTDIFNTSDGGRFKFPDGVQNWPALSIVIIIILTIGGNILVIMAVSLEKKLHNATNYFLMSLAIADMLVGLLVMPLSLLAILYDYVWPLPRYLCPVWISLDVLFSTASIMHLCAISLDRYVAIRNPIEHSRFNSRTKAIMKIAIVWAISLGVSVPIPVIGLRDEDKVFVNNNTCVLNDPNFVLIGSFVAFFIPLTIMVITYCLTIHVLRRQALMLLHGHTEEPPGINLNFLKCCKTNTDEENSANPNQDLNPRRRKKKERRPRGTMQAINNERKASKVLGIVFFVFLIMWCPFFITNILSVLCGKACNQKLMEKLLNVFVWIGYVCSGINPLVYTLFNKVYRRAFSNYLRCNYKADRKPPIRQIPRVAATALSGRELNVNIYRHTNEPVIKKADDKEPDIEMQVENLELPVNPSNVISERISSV
Procedure: as §1

Compound	IC50 ([1]; rat brain membranes, 3H-serotonin, 25 °C, 30 min, pH 7.4, read-out: Inhibition of Radioligand Binding to 5HT Receptor 1B (IC50)) [nM]	IC50 [2] [nM]	IC50 [3] [nM]	IC50 ([4]; rat brain membranes, 3H-8-hydroxy-2-(di-n-propylamino)tetralin, 25 °C, 30 min, pH 7.4, read-out: Inhibition of Radioligand Binding to 5HT Receptor 1A (IC50)) [nM]	IC50 ([5]; read-out: Inhibition of Radioligand Binding to 5HT Receptor 1C (IC50); bovine choroid plexus membranes; 2 nM 3H-mesulergine; 25 °C, 30 min, pH 7.4) [nM]	IC50 [1] [nM]	IC50 [4] [nM]	IC50 ([5]; bovine choroid plexus membranes; 2 nM 3H-mesulergine; 25 °C, 30 min, pH 7.4; read-out: Inhibition of Radioligand Binding to 5HT Receptor 1C (IC50)) [nM]
CC(=O)N[C@H]1CC[C@H](NC(=O)[C@@H]2C[C@@H]3c4cccc5c4c(cn5C(C)C)C[C@H]3N(C)C2)CC1 (relative stereo) [Example 1, (8β)-N-(trans-4-acetamidocyclohexyl)-1-isopropyl-6-methylergoline-8-carboxamide]	> 1000	31	198	2310	18	–	–	–
CC(C)n1cc2c3c(cccc31)[C@H]1C[C@@H](C(=O)N[C@H]3CC[C@H](NS(C)(=O)=O)CC3)CN(C)[C@@H]1C2 (relative stereo) [Example 2, (8β)-N-(trans-4-methylsulfonamidocyclohexyl)-1-isopropyl-6-methylergoline-8-carboxamide maleate]	–	23	276	–	–	489	2650	22
